According to patent publication US20250179033A1 (priority 2021, published 2025):
“And” between values parts separate entries of the source, which are not always exact repeats. Identical values can stand only once.

Columns and labels:
Caco-2 permeability = assay type: in vitro ADME; conditions: human, Caco-2, pH 7.4
Method: (§1) Caco-2 Permeability: Caco-2 cells (ATCC®, Manassas, Virginia, United States of America) were grown on 24-well (pore size: 0.4 μm) polycarbonate filters. The monolayers were pre-incubated with pre-warmed HBSS (Hank's balanced salt solution) containing 2.5% HEPES buffer (pH 7.4) for 0.5 h at 37° C. After pre-incubation, the buffer was removed, and the experimental compounds were added to reach a final concentration of 10 μM. 2% bovine serum albumin (BSA) was added to the receiver buffer for the study. The total volume was 400 μL for the apical (A) side and 1200 μL for the basolateral (B) side. For apical to basolateral transport study (A-B), 100 μL each was collected from both sides for sample analysis at the start of the assay and then 200 μL was collected from the […] at 90 minutes (end of the study). The same timepoints and amounts were used for the basolateral to apical transport study (B-A).
(§2) The apparent permeability coefficient (Papp) was calculated from the following equation.
(§3) • v=Volume of the receiver cell • A=Exposed surface area (0.64 cm^2) • C=Initial donor concentration • ∂C/∂t=Change in receiver concentration over time

in vitro = in vitro ADME, mouse
Method: Protein Binding in Plasma: The donor side of dialysis inserts were filled with 200 μL plasma (human and mouse; source BioDuro, San Diego, California, United States of America) containing 5 μM drug and 0.5% of DMSO and the receiver side of the dialysis inserts was filled with 350 μL of PBS buffer (100 mM, pH 7.4). The prepared dialysis apparatus was placed in a shaker (37° C., 100 rpm) for 5 hours. Two tubes with plasma containing 5 μM experimental compound were also prepared for stability test: one tube was placed in the […] for 5 hours and the other tube was placed in shaker ([…], 100 rpm) for 5 hours. Samples were collected from the donor and receiver sides of each dialysis insert. The same volume of blank plasma was added to buffer samples and blank buffer to plasma samples to make sure all sample mixtures contain 50% plasma and 50% buffer. 50 μL of each sample was mixed with 300 μL of acetonitrile containing 25 ng/ml internal standard (propranolol). All samples were vortexed for 1 minute and then centrifuged at 4000 rpm, 4° C. for 15 min. 100 μL of the supernatant was transferred to 0.65 ml tube for LCMS analysis. The amount of compound was determined on the basis of the peak area ratio (compound area to internal standard area) for the two sides, and protein binding is determined using the following equations: % Bound=100×([Area Ratio of Donor]5h*5−[Area Ratio of Receiver]5h)/([Area Ratio of Donor]5h*5). The percentage remaining at 37° C. after 5 hours was calculated on the basis of the amount measured at 0° C. after 5 hours.

CYP2C9 = CYP2C9 (Homo sapiens, UniProt P11712); experiment: Human CYP inhibition in human liver microsomes; assay type: in vitro ADME; conditions: substrate diclofenac, read-out: CYP inhibition IC50, 2C9
Method: (§4) Study samples (containing either control inhibitor or test compound) were added into the tubes, vortexed gently and pre-incubated for 5 min at 37° C. 20 μL of NADPH solution was aliquoted into all tubes, then vortexed to start the reaction and to assure adequate mixture of the NADPH. After mixing, the tubes were incubated for 20 min at 37° C. in a shaking water bath and then quenched in […] formic acid/acetonitrile solution. After quenching, the samples were vortexed vigorously for 1 min and centrifuged at 4,000 rpm for 15 min (4° C.). 100 μL of supernatant was transferred to 0.65 ml tubes for LCMS analysis by the bioanalytical method described earlier. The CYP450 substrates and control inhibitors for each enzyme was as follows: CYP1A2 (phenacetin, naphthoflavone), CYP2C9 (diclofenac, sulfaphenazole), CYP2C19 (omeprazole, tranylcypromine), CYP2D6 (dextromethorphan, quinidine), CYP3A4 (midazolam, ketoconazole).

CYP1A2 = biological target: T1, CYP1A2 (Homo sapiens, UniProt P05177); experiment: Human CYP inhibition in human liver microsomes; assay type: in vitro ADME; conditions: substrate phenacetin, read-out: CYP inhibition IC50, 1A2
T1 sequence (P05177 1-516): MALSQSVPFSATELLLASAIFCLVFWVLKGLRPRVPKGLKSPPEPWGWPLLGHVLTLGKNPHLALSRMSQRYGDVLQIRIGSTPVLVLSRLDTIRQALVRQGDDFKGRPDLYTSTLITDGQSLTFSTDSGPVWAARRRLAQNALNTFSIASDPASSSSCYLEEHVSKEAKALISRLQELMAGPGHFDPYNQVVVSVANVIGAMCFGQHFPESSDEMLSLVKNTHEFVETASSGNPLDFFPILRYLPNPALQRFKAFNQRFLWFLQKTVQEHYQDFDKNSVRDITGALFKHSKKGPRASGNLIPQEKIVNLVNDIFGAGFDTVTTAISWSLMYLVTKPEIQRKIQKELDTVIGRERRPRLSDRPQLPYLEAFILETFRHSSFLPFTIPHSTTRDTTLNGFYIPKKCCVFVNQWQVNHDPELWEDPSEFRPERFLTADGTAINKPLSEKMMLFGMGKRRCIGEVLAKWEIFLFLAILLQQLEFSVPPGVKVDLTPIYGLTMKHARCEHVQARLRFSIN
Method: as §4

CYP2C19 = CYP2C19 (Homo sapiens, UniProt P33261); experiment: Human CYP inhibition in human liver microsomes; assay type: in vitro ADME; conditions: substrate omeprazole, read-out: CYP inhibition IC50, 2C19
Method: as §4

Caco-2 cells = experiment: Caco-2 permeability; assay type: in vitro ADME; conditions: 10 μM
Method: as §1, §2, §3

Huh-7D12 = experiment: 99% toxic dose (TD99) in Huh-7D12; assay type: cell-based
THP-1 = experiment: 99% toxic dose (TD99) in THP-1; assay type: cell-based

Sequence of CYP2C9 (P11712 whole entry): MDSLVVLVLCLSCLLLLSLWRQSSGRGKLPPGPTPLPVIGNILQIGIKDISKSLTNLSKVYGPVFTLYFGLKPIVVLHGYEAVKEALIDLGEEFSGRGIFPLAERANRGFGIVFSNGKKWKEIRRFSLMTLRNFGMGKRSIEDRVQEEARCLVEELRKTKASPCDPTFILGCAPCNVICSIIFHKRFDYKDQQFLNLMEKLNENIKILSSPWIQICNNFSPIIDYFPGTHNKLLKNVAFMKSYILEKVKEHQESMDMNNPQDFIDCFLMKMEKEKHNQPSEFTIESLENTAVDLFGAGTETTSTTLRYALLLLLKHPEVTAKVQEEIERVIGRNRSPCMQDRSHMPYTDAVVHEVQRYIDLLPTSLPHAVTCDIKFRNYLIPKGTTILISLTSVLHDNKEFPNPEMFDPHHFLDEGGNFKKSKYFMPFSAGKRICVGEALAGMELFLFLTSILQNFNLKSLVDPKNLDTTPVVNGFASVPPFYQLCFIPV
Sequence of CYP2C19 (P33261 whole entry): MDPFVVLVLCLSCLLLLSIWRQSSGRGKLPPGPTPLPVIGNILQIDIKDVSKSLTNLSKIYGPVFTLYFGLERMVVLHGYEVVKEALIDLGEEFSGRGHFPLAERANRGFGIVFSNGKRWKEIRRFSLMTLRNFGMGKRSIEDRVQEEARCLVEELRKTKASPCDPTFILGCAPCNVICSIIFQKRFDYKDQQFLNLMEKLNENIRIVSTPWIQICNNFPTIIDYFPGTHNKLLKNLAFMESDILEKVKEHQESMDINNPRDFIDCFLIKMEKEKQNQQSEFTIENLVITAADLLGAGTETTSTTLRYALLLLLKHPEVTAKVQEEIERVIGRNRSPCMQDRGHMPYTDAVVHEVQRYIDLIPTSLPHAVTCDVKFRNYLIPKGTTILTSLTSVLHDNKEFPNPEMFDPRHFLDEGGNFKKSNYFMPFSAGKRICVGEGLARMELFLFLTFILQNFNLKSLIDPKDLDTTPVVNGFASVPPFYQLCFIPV

Structure (SMILES)	efflux ratio at 90 min, 10 μM (Caco-2 permeability)	Papp A→B at 90 min, 10 μM (Caco-2 permeability; 10 μM, 90 minutes) [×10⁻⁶ cm/s]	Papp B→A at 90 min, 10 μM (Caco-2 permeability; 10 μM, 90 minutes) [×10⁻⁶ cm/s]	half-life at 5 μM (in vitro; mouse, plasma) [h]	fraction unbound (in vitro; mouse, plasma, pH 7.4, 5 μM, dialysis 5 hours, read-out: Mouse plasma protein binding)	IC50 (CYP2C9) [µM]	IC50 (CYP1A2) [µM]	IC50 (CYP2C19) [µM]	Caco-2 Papp A-B (Caco-2 cells; 90 minutes) [×10⁻⁶ cm/s]	Caco-2 Papp B-A (Caco-2 cells; 90 minutes) [×10⁻⁶ cm/s]	Caco-2 Efflux ratio (Caco-2 cells; human, Caco-2, 90 min, pH 7.4)	99% toxic dose (TD99) (Huh-7D12)	Mouse plasma protein binding (in vitro; 5 μM, dialysis 5 hours) [%]	99% toxic dose (TD99) (THP-1)
N#C/C=C/c1ccc2c(S(=O)(=O)n3nc(Nc4ccc(C#N)c(Cl)c4)nc3N)cccc2c1 [Compound 20, 4-[[5-amino-1-[[6-[2-cyanovinyl]-1-naphthyl]sulfonyl]-1,2,4-triazol-3-yl]amino]-2-chloro-benzonitrile]	1	0.4	0.4	> 6.21	< 0.001	1.42	> 50	10.6						
Nc1nc(Nc2ccc(Cl)cc2)nn1S(=O)(=O)c1ccc2ccccc2c1 [Compound 1, N3-(4-chlorophenyl)-1-(2-naphthylsulfonyl)-1,2,4-triazole-3,5-diamine]									0.138	0.122	(×10−6 cm/s) Efflux ratio = 0.883	> 11 μg/ml and > 27.5 μM	>99.9	> 11 μg/ml and > 27.5 μM
